Reference: publication PMC7736581, “Activation of the IRE1 RNase through remodeling of the kinase front pocket by ATP-competitive ligands” (Nature Communications, 2020)

Assays:
Experiment in all cases: biochemical
Design in all cases: Invitrogen kinase panel: Z'Lyte activity (ATP at Km) or LanthaScreen competitive ATP-site binding, percent inhibition
CDK1/cyclinB = CDK1/cyclinB (Homo sapiens, UniProt P06493)
CHK2 = molecular target: T1, CHK2 (Homo sapiens, UniProt O96017)
T1 construct: gene CHEK2
T1 sequence (O96017 whole entry): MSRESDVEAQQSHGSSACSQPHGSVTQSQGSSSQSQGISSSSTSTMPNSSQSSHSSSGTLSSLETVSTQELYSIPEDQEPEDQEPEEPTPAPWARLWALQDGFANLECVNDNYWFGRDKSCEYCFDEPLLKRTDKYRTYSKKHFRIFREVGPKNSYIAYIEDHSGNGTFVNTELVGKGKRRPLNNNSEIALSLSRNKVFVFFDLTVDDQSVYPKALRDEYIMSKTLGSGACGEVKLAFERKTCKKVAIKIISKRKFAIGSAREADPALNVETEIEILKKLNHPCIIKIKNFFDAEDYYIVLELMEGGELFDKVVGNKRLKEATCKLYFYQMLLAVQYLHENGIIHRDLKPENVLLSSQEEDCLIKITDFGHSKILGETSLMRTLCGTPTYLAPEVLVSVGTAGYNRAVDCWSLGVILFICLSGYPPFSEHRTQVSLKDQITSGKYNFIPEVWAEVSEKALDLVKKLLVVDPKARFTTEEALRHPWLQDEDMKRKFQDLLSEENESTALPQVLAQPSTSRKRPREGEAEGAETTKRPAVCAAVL

IKK_beta = molecular target: T2, IKK_beta (Homo sapiens, UniProt O14920)
T2 construct: gene IKBKB
T2 sequence (O14920 1-756): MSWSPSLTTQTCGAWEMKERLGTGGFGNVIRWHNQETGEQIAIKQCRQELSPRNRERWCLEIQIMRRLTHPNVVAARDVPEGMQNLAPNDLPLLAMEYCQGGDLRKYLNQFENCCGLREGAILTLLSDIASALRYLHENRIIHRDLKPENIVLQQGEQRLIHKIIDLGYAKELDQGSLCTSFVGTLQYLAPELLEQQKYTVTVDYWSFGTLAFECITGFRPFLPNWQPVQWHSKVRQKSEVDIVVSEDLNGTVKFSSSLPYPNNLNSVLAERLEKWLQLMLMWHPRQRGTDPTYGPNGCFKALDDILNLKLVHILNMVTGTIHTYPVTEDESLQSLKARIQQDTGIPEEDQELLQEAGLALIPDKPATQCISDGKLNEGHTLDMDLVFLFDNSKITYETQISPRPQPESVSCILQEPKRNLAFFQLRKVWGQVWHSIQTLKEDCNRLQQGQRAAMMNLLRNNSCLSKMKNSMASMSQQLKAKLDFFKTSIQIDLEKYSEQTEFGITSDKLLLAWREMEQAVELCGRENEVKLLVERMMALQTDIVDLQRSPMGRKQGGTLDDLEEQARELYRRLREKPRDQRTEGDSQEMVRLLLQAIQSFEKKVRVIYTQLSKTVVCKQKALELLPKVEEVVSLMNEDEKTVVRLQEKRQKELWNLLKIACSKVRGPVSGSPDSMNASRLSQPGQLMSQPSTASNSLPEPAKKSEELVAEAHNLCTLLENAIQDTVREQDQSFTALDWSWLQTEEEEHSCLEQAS

PKC_zeta = molecular target: T3, PKC_zeta (Homo sapiens, UniProt Q05513)
T3 construct: gene PRKCZ
T3 sequence (Q05513 1-592): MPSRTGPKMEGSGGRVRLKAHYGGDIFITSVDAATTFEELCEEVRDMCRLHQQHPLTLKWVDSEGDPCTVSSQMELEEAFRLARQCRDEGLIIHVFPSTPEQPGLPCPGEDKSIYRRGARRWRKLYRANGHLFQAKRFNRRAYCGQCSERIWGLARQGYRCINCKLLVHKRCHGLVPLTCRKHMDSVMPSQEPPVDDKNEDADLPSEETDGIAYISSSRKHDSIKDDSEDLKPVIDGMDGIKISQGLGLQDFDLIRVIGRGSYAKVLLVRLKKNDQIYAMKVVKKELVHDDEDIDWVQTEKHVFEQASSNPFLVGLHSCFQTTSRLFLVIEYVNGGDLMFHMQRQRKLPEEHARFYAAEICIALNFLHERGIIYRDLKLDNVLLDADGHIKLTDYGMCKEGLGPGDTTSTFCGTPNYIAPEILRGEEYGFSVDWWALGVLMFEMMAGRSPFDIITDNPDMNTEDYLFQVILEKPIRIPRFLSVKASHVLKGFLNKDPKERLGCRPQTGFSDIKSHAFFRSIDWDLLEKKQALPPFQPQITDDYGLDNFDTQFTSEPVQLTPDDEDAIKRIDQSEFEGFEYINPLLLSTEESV

RAF1(Y340D,Y341D) = RAF1(Y340D,Y341D) (Homo sapiens, UniProt P04049, Y340D/Y341D)
Sequence of RAF1(Y340D,Y341D) (P04049 whole entry Y340D/Y341D): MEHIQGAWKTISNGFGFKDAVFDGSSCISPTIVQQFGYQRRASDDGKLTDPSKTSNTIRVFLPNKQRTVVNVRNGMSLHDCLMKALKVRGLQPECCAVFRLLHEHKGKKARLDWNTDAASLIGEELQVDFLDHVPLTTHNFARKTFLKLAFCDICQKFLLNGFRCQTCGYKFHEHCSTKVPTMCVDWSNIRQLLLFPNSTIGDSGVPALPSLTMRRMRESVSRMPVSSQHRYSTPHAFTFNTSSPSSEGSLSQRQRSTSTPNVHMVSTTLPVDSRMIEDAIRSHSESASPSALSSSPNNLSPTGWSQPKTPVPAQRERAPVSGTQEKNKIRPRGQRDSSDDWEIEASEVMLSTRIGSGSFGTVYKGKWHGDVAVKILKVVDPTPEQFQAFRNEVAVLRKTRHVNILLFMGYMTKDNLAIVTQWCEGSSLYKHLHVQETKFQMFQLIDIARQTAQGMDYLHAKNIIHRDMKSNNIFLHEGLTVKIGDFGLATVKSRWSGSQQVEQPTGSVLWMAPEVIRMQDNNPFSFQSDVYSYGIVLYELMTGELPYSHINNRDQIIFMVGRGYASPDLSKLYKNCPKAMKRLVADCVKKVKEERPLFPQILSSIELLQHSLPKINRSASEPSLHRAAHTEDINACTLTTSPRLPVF

TBK1 = molecular target: T4, TBK1 (Homo sapiens, UniProt Q9UHD2)
T4 sequence (Q9UHD2 1-729): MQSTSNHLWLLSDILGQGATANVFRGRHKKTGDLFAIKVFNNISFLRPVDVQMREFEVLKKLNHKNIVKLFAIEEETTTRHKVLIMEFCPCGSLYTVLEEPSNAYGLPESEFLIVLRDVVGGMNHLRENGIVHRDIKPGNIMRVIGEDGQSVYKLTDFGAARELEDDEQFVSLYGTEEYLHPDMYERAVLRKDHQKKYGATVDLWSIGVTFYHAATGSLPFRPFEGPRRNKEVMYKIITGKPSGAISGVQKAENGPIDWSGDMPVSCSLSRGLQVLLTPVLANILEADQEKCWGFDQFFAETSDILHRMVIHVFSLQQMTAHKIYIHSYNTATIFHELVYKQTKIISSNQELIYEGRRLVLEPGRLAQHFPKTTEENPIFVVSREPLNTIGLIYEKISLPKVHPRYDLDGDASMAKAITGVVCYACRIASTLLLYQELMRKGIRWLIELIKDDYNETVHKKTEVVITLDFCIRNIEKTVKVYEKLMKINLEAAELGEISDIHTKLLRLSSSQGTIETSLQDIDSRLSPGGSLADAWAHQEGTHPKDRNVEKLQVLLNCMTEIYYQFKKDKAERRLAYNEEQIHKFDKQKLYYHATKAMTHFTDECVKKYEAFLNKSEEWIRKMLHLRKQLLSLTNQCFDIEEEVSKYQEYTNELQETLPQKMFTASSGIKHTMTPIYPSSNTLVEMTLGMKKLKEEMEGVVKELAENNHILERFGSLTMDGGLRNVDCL

TrkA = molecular target: T5, TrkA (Homo sapiens, UniProt P04629)
T5 construct: gene NTRK1
T5 sequence (P04629 whole entry): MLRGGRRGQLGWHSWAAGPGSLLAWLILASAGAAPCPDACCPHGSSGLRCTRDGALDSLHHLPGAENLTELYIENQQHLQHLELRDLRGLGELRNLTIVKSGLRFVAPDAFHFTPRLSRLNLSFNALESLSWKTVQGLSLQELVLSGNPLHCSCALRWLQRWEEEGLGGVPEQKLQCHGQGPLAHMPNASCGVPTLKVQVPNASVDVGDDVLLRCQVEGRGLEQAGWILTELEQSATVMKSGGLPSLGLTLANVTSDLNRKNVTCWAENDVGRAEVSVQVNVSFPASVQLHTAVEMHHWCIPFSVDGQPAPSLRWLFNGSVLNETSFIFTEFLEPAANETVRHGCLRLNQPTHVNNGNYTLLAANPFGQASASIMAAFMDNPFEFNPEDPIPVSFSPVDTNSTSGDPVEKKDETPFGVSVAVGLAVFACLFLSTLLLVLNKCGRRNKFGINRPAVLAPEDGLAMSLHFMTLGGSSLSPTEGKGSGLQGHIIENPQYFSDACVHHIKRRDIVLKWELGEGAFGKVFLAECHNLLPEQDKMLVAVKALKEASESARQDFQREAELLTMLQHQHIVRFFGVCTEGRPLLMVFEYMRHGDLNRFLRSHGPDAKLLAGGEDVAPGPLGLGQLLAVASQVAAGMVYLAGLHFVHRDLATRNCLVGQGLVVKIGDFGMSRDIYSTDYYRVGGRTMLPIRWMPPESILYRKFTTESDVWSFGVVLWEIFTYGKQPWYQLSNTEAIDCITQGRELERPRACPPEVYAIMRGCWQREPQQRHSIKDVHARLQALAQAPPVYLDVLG

Sequence of CDK1/cyclinB (P06493 whole entry): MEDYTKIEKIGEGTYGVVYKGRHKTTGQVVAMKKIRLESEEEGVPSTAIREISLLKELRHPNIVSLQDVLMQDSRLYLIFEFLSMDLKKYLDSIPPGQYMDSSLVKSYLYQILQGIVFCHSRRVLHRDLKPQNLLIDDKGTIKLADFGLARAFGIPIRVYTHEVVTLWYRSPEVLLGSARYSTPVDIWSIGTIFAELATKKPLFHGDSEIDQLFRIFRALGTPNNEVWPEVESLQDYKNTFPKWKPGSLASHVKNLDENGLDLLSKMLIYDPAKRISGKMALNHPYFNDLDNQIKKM
Sequence of CDK1/cyclinB (P14635 whole entry partner): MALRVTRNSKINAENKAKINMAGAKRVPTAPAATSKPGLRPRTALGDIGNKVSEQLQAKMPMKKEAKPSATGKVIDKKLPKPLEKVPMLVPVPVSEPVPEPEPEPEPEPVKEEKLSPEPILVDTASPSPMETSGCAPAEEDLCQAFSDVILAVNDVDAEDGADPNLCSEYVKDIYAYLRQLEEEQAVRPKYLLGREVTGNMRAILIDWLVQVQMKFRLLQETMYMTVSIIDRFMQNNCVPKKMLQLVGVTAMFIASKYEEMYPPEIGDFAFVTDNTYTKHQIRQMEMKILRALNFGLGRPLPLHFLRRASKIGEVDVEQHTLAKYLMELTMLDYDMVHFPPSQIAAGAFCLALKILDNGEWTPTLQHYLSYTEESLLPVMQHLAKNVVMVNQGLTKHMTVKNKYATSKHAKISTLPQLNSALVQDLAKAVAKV

Row | Structure (SMILES) | inhibition at 1 µM (CDK1/cyclinB) [%] | inhibition at 1 µM (CHK2) [%] | inhibition at 1 µM (IKK_beta) [%] | inhibition at 1 µM (PKC_zeta) [%] | inhibition at 1 µM (RAF1(Y340D,Y341D)) [%] | inhibition at 1 µM (TBK1) [%] | inhibition at 1 µM (TrkA) [%]
1 | CCOC(=O)Nc1cccc2c(Oc3ncccc3-c3ccnc(N[C@H]4CCCNC4)n3)c(C)ccc12 [G-1749] | 6.5 | 12 | -2 | 12 | 24.5 | -0.5 | -4
2 | CC#CC(=O)Nc1cccc2c(Oc3ncccc3-c3ccnc(N[C@H]4CCCNC4)n3)c(C)ccc12 [G-7658] | 7.5 | 8 | 0 | 18.5 | 1 | 0 | 10.5
3 | O=c1cc(-c2n[nH]c3ncc(-c4c(F)cccc4F)cc23)nc(N2CCC(O)CC2)[nH]1 [G-9807] | 96.5 | 95 | 80.4 | 34.2 | 43.3 | 95.7 | 91.2
